Data as given in paper PMC11124822, “Discovery and Anticancer Screening of Novel Oxindole-Based Derivative Bearing Pyridyl Group as Potent and Selective Dual FLT3/CDK2 Kinase Inhibitor” (Pharmaceuticals, 2024).

How the values were obtained:
[1] = test system: U251; assay: NCI-60 antiproliferative screen (SRB); assay type: cell-based, human; settings: Homo sapiens, U-251; 10 µM single dose, 48 h; U251 (CNS); read-out: Growth inhibition (%)
[2] = test system: OVCAR-8; assay: NCI-60 antiproliferative screen (SRB); assay type: cell-based, human; settings: Homo sapiens; 10 µM single dose, 48 h; OVCAR-8 (Ovarian); read-out: Growth inhibition (%)
[3] = test system: HCT-116; assay: NCI-60 antiproliferative screen (SRB); assay type: cell-based, human; settings: Homo sapiens; 10 µM single dose, 48 h; HCT-116 (Colon); read-out: Growth inhibition (%)
[4] = test system: SF-295; assay: NCI-60 antiproliferative screen (SRB); assay type: cell-based, human; settings: Homo sapiens; 10 µM single dose, 48 h; SF-295 (CNS); read-out: Growth inhibition (%)
[5] = test system: BT-549; assay: NCI-60 antiproliferative screen (SRB); assay type: cell-based, human; settings: Homo sapiens; 10 µM single dose, 48 h; BT-549 (Breast); read-out: Growth inhibition (%)
[6] = test system: RPMI-8226; assay: NCI-60 antiproliferative screen (SRB); assay type: cell-based, human; settings: Homo sapiens; 10 µM single dose, 48 h; RPMI-8226 (Leukemia); read-out: Growth inhibition (%)
[7] = test system: UACC-257; assay: NCI-60 antiproliferative screen (SRB); assay type: cell-based, human; settings: Homo sapiens; 10 µM single dose, 48 h; UACC-257 (Melanoma); read-out: Growth inhibition (%)
[8] = test system: K-562; assay: NCI-60 antiproliferative screen (SRB); assay type: cell-based, human; settings: Homo sapiens, K562; 10 µM single dose, 48 h; K-562 (Leukemia); read-out: Growth inhibition (%)
[9] = test system: A549/ATCC; assay: NCI-60 antiproliferative screen (SRB); assay type: cell-based, human; settings: Homo sapiens; 10 µM single dose, 48 h; A549/ATCC (NSCLC); read-out: Growth inhibition (%)
[10] = test system: NCI/ADR-RES; assay: NCI-60 antiproliferative screen (SRB); assay type: cell-based, human; settings: Homo sapiens; 10 µM single dose, 48 h; NCI/ADR-RES (Ovarian); read-out: Growth inhibition (%)
[11] = test system: OVCAR-5; assay: NCI-60 antiproliferative screen (SRB); assay type: cell-based, human; settings: Homo sapiens; 10 µM single dose, 48 h; OVCAR-5 (Ovarian); read-out: Growth inhibition (%)
[12] = test system: MDA-MB-468; assay: NCI-60 antiproliferative screen (SRB); assay type: cell-based, human; settings: Homo sapiens; 10 µM single dose, 48 h; MDA-MB-468 (Breast); read-out: Growth inhibition (%)
[13] = test system: MDA-MB-231; assay: NCI-60 antiproliferative screen (SRB); assay type: cell-based, human; settings: Homo sapiens; 10 µM single dose, 48 h; MDA-MB-231 (Breast); read-out: Growth inhibition (%)
[14] = test system: NCI-H460; assay: NCI-60 antiproliferative screen (SRB); assay type: cell-based, human; settings: Homo sapiens; 10 µM single dose, 48 h; NCI-H460 (NSCLC); read-out: Growth inhibition (%)
[15] = test system: OVCAR-4; assay: NCI-60 antiproliferative screen (SRB); settings: Homo sapiens, OVCAR-4, 48 h, read-out: Growth inhibition (%)
[16] = test system: ACHN; assay: NCI-60 antiproliferative screen (SRB); assay type: cell-based, human; settings: Homo sapiens; 10 µM single dose, 48 h; ACHN (Renal); read-out: Growth inhibition (%)
[17] = test system: SK-MEL-28; assay: NCI-60 antiproliferative screen (SRB); assay type: cell-based, human; settings: Homo sapiens; 10 µM single dose, 48 h; SK-MEL-28 (Melanoma); read-out: Growth inhibition (%)
[18] = test system: CCRF-CEM; assay: NCI-60 antiproliferative screen (SRB); assay type: cell-based, human; settings: Homo sapiens; 10 µM single dose, 48 h; CCRF-CEM (Leukemia); read-out: Growth inhibition (%)
[19] = test system: HOP-92; assay: NCI-60 antiproliferative screen (SRB); assay type: cell-based, human; settings: Homo sapiens; 10 µM single dose, 48 h; HOP-92 (NSCLC); read-out: Growth inhibition (%)
[20] = test system: TK-10; assay: NCI-60 antiproliferative screen (SRB); assay type: cell-based, human; settings: Homo sapiens; 10 µM single dose, 48 h; TK-10 (Renal); read-out: Growth inhibition (%)
[21] = test system: SF-268; assay: NCI-60 antiproliferative screen (SRB); assay type: cell-based, human; settings: Homo sapiens; 10 µM single dose, 48 h; SF-268 (CNS); read-out: Growth inhibition (%)
[22] = test system: SK-MEL-2; assay: NCI-60 antiproliferative screen (SRB); assay type: cell-based, human; settings: Homo sapiens; 10 µM single dose, 48 h; SK-MEL-2 (Melanoma); read-out: Growth inhibition (%)
[23] = test system: A498; assay: NCI-60 antiproliferative screen (SRB); assay type: cell-based, human; settings: Homo sapiens; 10 µM single dose, 48 h; A498 (Renal); read-out: Growth inhibition (%)
[24] = test system: DU-145; assay: NCI-60 antiproliferative screen (SRB); assay type: cell-based, human; settings: Homo sapiens; 10 µM single dose, 48 h; DU-145 (Prostate); read-out: Growth inhibition (%)
[25] = test system: MCF7; assay: NCI-60 antiproliferative screen (SRB); assay type: cell-based, human; settings: Homo sapiens; 10 µM single dose, 48 h; MCF7 (Breast); read-out: Growth inhibition (%)
[26] = test system: 786-0; assay: NCI-60 antiproliferative screen (SRB); assay type: cell-based, human; settings: Homo sapiens; 10 µM single dose, 48 h; 786-0 (Renal); read-out: Growth inhibition (%)
[27] = test system: HS 578T; assay: NCI-60 antiproliferative screen (SRB); assay type: cell-based, human; settings: Homo sapiens; 10 µM single dose, 48 h; HS 578T (Breast); read-out: Growth inhibition (%)
[28] = test system: PC-3; assay: NCI-60 antiproliferative screen (SRB); assay type: cell-based, human; settings: Homo sapiens; 10 µM single dose, 48 h; PC-3 (Prostate); read-out: Growth inhibition (%)
[29] = test system: RXF 393; assay: NCI-60 antiproliferative screen (SRB); assay type: cell-based, human; settings: Homo sapiens; 10 µM single dose, 48 h; RXF 393 (Renal); read-out: Growth inhibition (%)

Row | SMILES | inhibition at 10 µM [1] [%] | inhibition at 10 µM [2] [%] | inhibition at 10 µM [3] [%] | inhibition at 10 µM [4] [%] | inhibition at 10 µM [5] [%] | melting point [°C] | inhibition at 10 µM [6] [%] | inhibition at 10 µM [7] [%] | inhibition at 10 µM [8] [%] | inhibition at 10 µM [9] [%] | inhibition at 10 µM [10] [%] | inhibition at 10 µM [11] [%] | inhibition at 10 µM [12] [%] | inhibition at 10 µM [14] [%] | inhibition at 10 µM [15] [%] | inhibition at 10 µM [16] [%] | inhibition at 10 µM [17] [%] | inhibition at 10 µM [18] [%] | inhibition at 10 µM [19] [%] | inhibition at 10 µM [20] [%] | further results
1 | O=C1Nc2ccccc2C1=Cc1ccc(OCc2ccccc2)cc1 (mixture of isomers) [Compound 5a, (E/Z)-3-[4-(Benzyloxy)benzylidene] indolin-2-one] | -3.49 | 2.34 | 4.24 | -6.78 | -5.74 | 220 to 223 | 1.13 | -9.45 | 11.8 | -3.26 | -0.55 | -2.24 | 0.75 | -8.64 | -7.99 | -4.27 | -7.21 | 0.52 | -7 | -8.25 | inhibition at 10 µM [13]: -10%; inhibition at 10 µM [21]: -1.74%; inhibition at 10 µM [22]: -4.59%; inhibition at 10 µM [23]: 7.9%; inhibition at 10 µM [24]: -4.38%; inhibition at 10 µM [25]: 15.8%; inhibition at 10 µM [26]: 3.67%; inhibition at 10 µM [27]: -6.13%; inhibition at 10 µM [28]: 5.85%; inhibition at 10 µM [29]: -16.2%
2 | O=C1Nc2ccc(F)cc2C1=Cc1ccc(OCc2ccccc2)cc1 (mixture of isomers) [Compound 5b, (E/Z)-3-[4-(Benzyloxy)benzylidene]-5-fluoroindolin-2-one] | 0.4 | -0.84 | 4.15 | 1.11 | -6.03 | 244 to 248 | 2.59 | 2.53 | 7.19 | 3.9 | 0.01 | -0.99 | 1.56 | -0.94 | 0.82 | -7.3 | 2.92 | -10.8 | 4.77 | 4.82 | inhibition at 10 µM [13]: 2.43%; inhibition at 10 µM [21]: 5.43%; inhibition at 10 µM [24]: 0.4%; inhibition at 10 µM [25]: 7.57%; inhibition at 10 µM [26]: 0.43%; inhibition at 10 µM [27]: -0.32%; inhibition at 10 µM [28]: -2.77%; inhibition at 10 µM [29]: 0.31%
3 | O=C1Nc2ccc(Cl)cc2C1=Cc1ccc(OCc2ccccc2)cc1 (mixture of isomers) [Compound 5c, (E/Z)-3-[4-(Benzyloxy)benzylidene]-5-chloroindolin-2-one] | -1.54 | -0.47 | 3.41 | -11.1 | -2.68 | 214 to 216 | -3.85 | -6.58 | -0.34 | -0.99 | 1.88 | -2.92 | -0.96 | -3.66 | -7.18 | -1.45 | -8.75 | 0.21 | 9.75 | -12.7 | inhibition at 10 µM [13]: -5.3%; inhibition at 10 µM [21]: 3.26%; inhibition at 10 µM [22]: -0.35%; inhibition at 10 µM [23]: -2.37%; inhibition at 10 µM [24]: -5.61%; inhibition at 10 µM [25]: 16%; inhibition at 10 µM [26]: -2.86%; inhibition at 10 µM [27]: -2.25%; inhibition at 10 µM [28]: 12.9%; inhibition at 10 µM [29]: -5.38%
4 | O=C1Nc2ccc(Cl)cc2C1=Cc1ccc(OCc2ccccn2)cc1 (mixture of isomers) [Compound 5g, (E/Z)-5-Chloro-3-[4-(pyridin-2-ylmethoxy)benzylidene] indolin-2-one] | 76.3 | 54.1 | 71.5 | 15.5 | 21.2 | 219 to 220 | 26.1 | -18.2 | 49 | 35.6 | 85.9 | 11.8 | 49.6 | 84 | 102 | 43 | -0.48 | 16.8 | 27.9 | 9.89 | inhibition at 10 µM [13]: 78.3%; inhibition at 10 µM [21]: 20.7%; inhibition at 10 µM [22]: -11.4%; inhibition at 10 µM [23]: 54.9%; inhibition at 10 µM [24]: 12.2%; inhibition at 10 µM [25]: 71.1%; inhibition at 10 µM [26]: 74.3%; inhibition at 10 µM [27]: 85.2%; inhibition at 10 µM [28]: 37.9%
5 | O=C1Nc2cc(Cl)ccc2C1=Cc1ccc(OCc2ccccn2)cc1 (mixture of isomers) [Compound 5h, (E/Z)-6-Chloro-3-[4-(pyridin-2-ylmethoxy)benzylidene]indolin-2-one] | 61.6 | 13.6 | 47.8 | 14.3 | 33.8 | 260 to 263 | 32.4 | -2.1 | 31.4 | 62.5 | 39 | 15.6 | 60.8 | 56.7 | 75.8 | 9.61 | -8.02 | 53.7 | 35.8 | -0.24 | inhibition at 10 µM [21]: 23.2%; inhibition at 10 µM [22]: -10.3%; inhibition at 10 µM [23]: -11.5%; inhibition at 10 µM [24]: 39.6%; inhibition at 10 µM [25]: 63.7%; inhibition at 10 µM [26]: 18.7%; inhibition at 10 µM [28]: 54.7%; inhibition at 10 µM [29]: 38.2%
